Experimental data: US10221138B2, “Biaryl derivatives as GPR120 agonists” (LG CHEM, LTD., priority 2013, dated 2019)
pEC50: −log10 of the molar value.

Target: T1, hGPR120 (Homo sapiens, UniProt Q5NUL3)
T1 construct: expressed in transfected cells; host or cells: CHO-K1
T1 sequence (Q5NUL3 1-361): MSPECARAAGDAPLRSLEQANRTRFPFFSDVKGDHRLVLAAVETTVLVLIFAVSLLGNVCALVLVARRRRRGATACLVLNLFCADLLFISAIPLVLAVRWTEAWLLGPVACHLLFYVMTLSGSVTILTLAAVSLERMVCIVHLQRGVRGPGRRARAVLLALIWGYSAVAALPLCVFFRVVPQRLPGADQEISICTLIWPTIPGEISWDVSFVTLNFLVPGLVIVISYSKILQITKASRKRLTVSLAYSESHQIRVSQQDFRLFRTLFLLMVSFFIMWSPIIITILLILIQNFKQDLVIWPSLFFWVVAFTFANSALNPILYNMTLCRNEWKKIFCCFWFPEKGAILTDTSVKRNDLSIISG
Assay: Measurement of activity of GPR120 agonist (cell-based calcium fluorescence assay)
Details: CHO-K1 cells expressing Ga16 and hGPR120, Calcium 5 dye fluorescence; activity class; read-out: EC50
In short: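 CHO-K1 cells co-expressing Gα16 and hGPR120, plated 18 h, loaded with Calcium 5 dye for 1 h at 37 °C, then given serially diluted agonists (final 0.5% DMSO). Fluorescence increase expressed as relative % of the 1% DMSO-only signal.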

Row | pEC50 | SMILES
1 | > 6.70 | CCCOc1ncccc1-c1cc(F)c(SCCCC(=O)O)c(F)c1 [Example 139, 4-[2,6-difluoro-4-(2-propoxy-pyridin-3-yl)-phenylsulfanyl]-butyric acid]
2 | > 6.70 | CC(C)Sc1cccc(-c2cc(F)c(SCCCC(=O)O)c(F)c2)n1 [Example 140, 4-[2,6-difluoro-4-(6-isopropylsulfanyl-pyridin-2-yl)-phenylsulfanyl]-butyric acid]
3 | > 6.70 | CCCSc1cccc(-c2cc(F)c(SCCCC(=O)O)c(F)c2)n1 [Example 141, 4-[2,6-difluoro-4-(6-propylsulfanyl-pyridin-2-yl)-phenylsulfanyl]-butyric acid]
4 | > 6.70 | O=C(O)CCCSc1c(F)cc(-c2cccnc2SC2CCC2)cc1F [Example 142, 4-[4-(2-cyclobutylsulfanyl-pyridin-3-yl)-2,6-difluoro-phenylsulfanyl]-butyric acid]
5 | > 6.70 | O=C(O)CCCSc1c(F)cc(-c2cccnc2OC2CCCC2)cc1F [Example 145, 4-[4-(2-cyclopentyloxy-pyridin-3-yl)-2,6-difluoro-phenylsulfanyl]-butyric acid]
6 | > 6.70 | CC(C)Sc1ncccc1-c1cc(F)c(SCCCC(=O)O)c(F)c1 [Example 146, 4-[2,6-difluoro-4-(2-isopropylsulfanyl-pyridin-3-yl)-phenylsulfanyl]-butyric acid]
7 | > 6.70 | O=C(O)CCCSc1c(F)cc(-c2cccnc2SC2CCCC2)cc1F [Example 147, 4-[4-(2-cyclopentylsulfanyl-pyridin-3-yl)-2,6-difluoro-phenylsulfanyl]-butyric acid]
8 | > 6.70 | CC(C)Sc1ncccc1-c1ccc(SCCCC(=O)O)cc1 [Example 148, 4-[4-(2-isopropylsulfanyl-pyridin-3-yl)-phenylsulfanyl]-butyric acid]
9 | > 6.70 | O=C(O)CCCSc1ccc(-c2cccnc2SC2CCCC2)cc1 [Example 149, 4-[4-(2-cyclopentylsulfanyl-pyridin-3-yl)-phenylsulfanyl]-butyric acid]
10 | > 6.70 | O=C(O)CCCSc1ccc(-c2cccnc2SC2CCC2)cc1F [Example 152, 4-[4-(2-cyclobutylsulfanyl-pyridin-3-yl)-2-fluoro-phenylsulfanyl]-butyric acid]
11 | > 6.70 | O=C(O)CCCSc1ccc(-c2cccnc2SC2CCC2)cc1 [Example 153, 4-[4-(2-cyclobutylsulfanyl-pyridin-3-yl)-phenylsulfanyl]-butyric acid]
12 | > 6.70 | O=C(O)CCCSc1c(F)cc(-c2cccc(OC3CCCC3)n2)cc1F [Example 155, 4-[4-(6-cyclopentyloxy-pyridin-2-yl)-2,6-difluoro-phenylsulfanyl]-bytyric acid]
13 | > 6.70 | O=C(O)CCCSc1ccc(-c2cccc(SC3CCC3)n2)cc1 [Example 156, 4-[4-(6-cyclobutylsulfanyl-pyridin-2-yl)-phenylsulfanyl]-butyric acid]
14 | > 6.70 | O=C(O)CCCSc1c(F)cc(-c2cccc(SC3CCC3)n2)cc1F [Example 158, 4-[4-(6-cyclobutylsulfanyl-pyridin-2-yl)-2,6-difluoro-phenylsulfanyl]-butyric acid]
15 | > 6.70 | O=C(O)CCCSc1c(F)cc(-c2cccc(SC3CCCC3)n2)cc1F [Example 159, 4-[4-(6-cyclopentylsulfanyl-pyridin-2-yl)-2,6-difluoro-phenylsulfanyl]-butyric acid]

Row | SMILES | pEC50
16 | O=C(O)CCCSc1ccc(-c2cccnc2OC2CCC2)cc1 [Example 143, 4-[4-(2-cyclobutoxy-pyridin-3-yl)-phenylsulfanyl]-butyric acid] | 5.70 to 6.70
17 | O=C(O)CCCSc1c(F)cc(-c2cccnc2OC2CCC2)cc1F [Example 144, 4-[4-(2-cyclobutoxy-pyridin-3-yl)-2,6-difluoro-phenylsulfanyl]-butyric acid] | > 6.70
18 | O=C(O)CCCSc1c(F)cc(-c2cccc(OC3CCC3)n2)cc1F [Example 154, 4-[4-(6-cyclobutoxy-pyridin-2-yl)-2,6-difluoro-phenylsulfanyl]-butyric acid] | > 6.70
